Values of other authors as cited in US20050042301A1, “Method of use of Xenon-133 for the treatment of AIDS, other viral and non-viral infections” (priority 2003, published 2005).

Conditions: stable xenon; b17 says distributed in the body, b20 says formed in vitro

size range of gas microbubbles (diameter): 5-10 microns
SMILES: [131Xe] [Xe-131, Xenon-131]
